Experimental data as given in ChEMBL document CHEMBL1687828, “Extremely drug-resistant Citrobacter freundii isolate producing NDM-1 and other carbapenemases identified in a patient returning from India” (2011).

Key:
[1] = system: Citrobacter freundii; test: Antibacterial activity against drug-resistant Citrobacter freundii isolate producing metallo-beta-lactamase NDM-1 with carbapenemase activity isolated from urine culture of cerebral vascular malformation patient; assay type: functional
[2] = system: Citrobacter freundii; test: Antibacterial activity against drug-resistant Citrobacter freundii isolate producing metallo-beta-lactamase NDM-1 with carbapenemase activity isolated from urine culture of cerebral vascular malformation patient by Etest; assay type: functional, organism-based

Row | Molecule | MIC [1] | MIC [2]
1 | C[C@@H](O)[C@H]1C(=O)N2C(C(=O)O)=C(SCCNC=N)C[C@H]12 [IMIPENEM ANHYDROUS] | > 32 mg/L | –
2 | C[C@@H](O)[C@H]1C(=O)N2C(C(=O)O)=C(S[C@@H]3CN[C@H](C(=O)N(C)C)C3)[C@H](C)[C@H]12 [MEROPENEM] | > 32 mg/L | –
3 | COLISTIN | – | 0.5 mg/L
4 | C[C@@H](O)[C@H]1C(=O)N2C(C(=O)O)=C(S[C@@H]3CN[C@H](C(=O)Nc4cccc(C(=O)O)c4)C3)[C@H](C)[C@H]12 [ERTAPENEM] | > 32 mg/L | –
